# Target: T1, CFTR (primary human bronchial epithelial cells from a ΔF508 homozygous CF donor, CF-HBE cells) (Homo sapiens, UniProt P13569, DEL508-508)
# T1 construct: Primary human bronchial epithelial cells from a ΔF508 homozygous CF donor; host or cells: primary human bronchial epithelial cells (CF-HBE) from a ΔF508 homozygous CF donor
# Assay: TECC24 recording of CFTR-mediated transepithelial chloride transport (TECC24 AUC fold over DMSO @ 3 μM)
# Type: cell-based
# Conditions: 3 uM test agent; CF-HBE cells (ΔF508 homozygous) incubated 48 h; ratio of test agent AUC of forskolin-stimulated IEQ to vehicle (DMSO) AUC
# Description: Example 510: TECC24 AUC Fold Over DMSO @ 3 μM
# The effects of a test agent on CFTR-mediated transepithelial chloride transport was measured using TECC24 recording analysis. Test agents were solubilized in DMSO. Solubilized test agents were mixed with incubation medium containing DMEM/F12, Ultroser G (2%; Crescent Chemical, catalog #67042), Hyclone Fetal Clone H (2%; GE Healthcare, catalog #SH30066.02), bovine brain extract (0.25%; Lonza, catalog #CC-4098), insulin (2.5 μg/mL), IL-13 (10 ng/mL), hydrocortisone (20 nM), transferrin (2.5 μg/mL), triiodothyronine (500 nM), ethanolamine (250 nM), epinephrine (1.5 μM), phosphoethanolamine (250 nM), and retinoic acid (10 nM). Primary human bronchial epithelial cells from a ΔF508 homozygous CF donor (CF-HBE cells; from University of North Carolina Cystic Fibrosis Tissue Procurement Center), grown on Transwell HTS 24-well cell culture inserts (Costar, catalog #3378), were exposed to test agents or controls dissolved in incubation medium. The CF-HBE cells were cultured at 36.5° C. for 48 h before TECC24 recordings were performed in the presence or absence of test agent, a positive control or vehicle (DMSO).
# Following incubation, the transwell cell culture inserts containing the test agent or control-treated CF-HBE cells were loaded onto a TECC24 apparatus (TECC v7 or MTECC v2; EP Design) to record the transepithelial voltage (VT) and resistance (TEER) using 4 AgCl electrodes per well configured in current-clamp mode. The apical and basolateral bath solutions both contained (in mM) 140 NaCl, 5 KCl, 2 CaCl2), 1 MgCl2, 10 Hepes, and 10 glucose (adjusted to pH 7.4 with NaOH) […]. To inhibit basal Na+ absorption, the ENaC inhibitor benzamil (10 μM) was added to the bath. Then, the adenylate cyclase activator, forskolin (10 μM), was added to the bath to activate CFTR. The forskolin-stimulated Cl− transport was halted by addition of bumetanide (20 μM), an inhibitor of the basolateral chloride co-transporter NKCC1, to the bath to confirm that the detected signal was chloride dependent. VT and TEER recordings were digitally acquired at routine intervals using TECC or MTECC software (EP Design). VT and TEER were transformed into equivalent transepithelial Cl− current (IEQ), and the Area Under the Curve (AUC) of the IEQ time course between forskolin and bumetanide addition is generated using Excel (Microsoft). Efficacy is expressed as the ratio of the test agent AUC divided by vehicle AUC. EC50s based on AUC are generated using the non-linear regression log(agonist) vs. response function in Prism software (GraphPad) with Hill Slope fixed=1.
# If a test agent increased the AUC of the forskolin-stimulated IEQ relative to vehicle in CF-HBE cells, and this increase was inhibited by bumetanide, then the test agent was considered a CFTR corrector.
# T1 sequence (P13569 with tags, fused parts or gaps DEL508-508): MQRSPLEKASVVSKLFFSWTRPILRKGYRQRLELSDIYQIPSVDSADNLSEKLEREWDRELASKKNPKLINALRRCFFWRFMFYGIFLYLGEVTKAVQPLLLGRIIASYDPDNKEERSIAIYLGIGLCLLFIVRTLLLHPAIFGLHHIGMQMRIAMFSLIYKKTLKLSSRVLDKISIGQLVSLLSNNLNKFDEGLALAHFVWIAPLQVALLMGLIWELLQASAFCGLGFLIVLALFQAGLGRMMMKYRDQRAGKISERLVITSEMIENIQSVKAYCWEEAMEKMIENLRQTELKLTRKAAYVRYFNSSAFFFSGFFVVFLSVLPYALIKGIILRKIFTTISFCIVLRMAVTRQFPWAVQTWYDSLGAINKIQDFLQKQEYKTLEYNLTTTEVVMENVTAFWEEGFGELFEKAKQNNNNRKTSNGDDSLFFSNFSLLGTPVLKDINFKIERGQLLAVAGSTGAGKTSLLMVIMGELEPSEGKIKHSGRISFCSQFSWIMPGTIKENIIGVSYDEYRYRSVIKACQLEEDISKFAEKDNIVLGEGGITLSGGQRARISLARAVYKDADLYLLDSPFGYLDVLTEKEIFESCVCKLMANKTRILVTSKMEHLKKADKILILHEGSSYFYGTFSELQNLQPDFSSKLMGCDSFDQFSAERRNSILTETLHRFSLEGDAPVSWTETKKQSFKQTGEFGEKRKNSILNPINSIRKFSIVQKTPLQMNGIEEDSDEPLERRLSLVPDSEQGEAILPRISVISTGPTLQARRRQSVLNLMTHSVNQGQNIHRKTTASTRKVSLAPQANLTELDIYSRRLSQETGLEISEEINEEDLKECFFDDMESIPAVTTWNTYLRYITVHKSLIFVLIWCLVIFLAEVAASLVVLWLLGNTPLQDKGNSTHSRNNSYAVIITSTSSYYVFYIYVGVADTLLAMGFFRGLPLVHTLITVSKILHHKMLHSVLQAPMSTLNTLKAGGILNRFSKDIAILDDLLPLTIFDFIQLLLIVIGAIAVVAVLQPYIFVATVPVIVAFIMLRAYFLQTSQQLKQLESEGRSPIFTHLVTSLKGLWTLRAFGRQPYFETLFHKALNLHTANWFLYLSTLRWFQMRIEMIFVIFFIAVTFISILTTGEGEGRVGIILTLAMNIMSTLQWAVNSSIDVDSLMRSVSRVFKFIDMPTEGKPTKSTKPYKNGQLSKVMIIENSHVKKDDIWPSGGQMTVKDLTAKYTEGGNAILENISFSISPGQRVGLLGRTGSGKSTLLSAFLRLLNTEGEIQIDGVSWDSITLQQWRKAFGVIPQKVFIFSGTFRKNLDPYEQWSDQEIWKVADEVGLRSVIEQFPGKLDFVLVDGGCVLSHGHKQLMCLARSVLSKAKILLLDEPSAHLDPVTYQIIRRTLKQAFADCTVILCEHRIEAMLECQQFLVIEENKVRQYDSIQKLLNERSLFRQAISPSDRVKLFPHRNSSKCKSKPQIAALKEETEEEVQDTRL
row,Compound,TECC AUC vs. DMSO @ 3 uM
1,"Cc1cccc(C(F)(F)F)c1-c1nc(NS(=O)(=O)c2ccnc(N)c2)sc1-c1cc(F)cc(OCCC(C)(C)C)c1 [Example 15, 2-Amino-N-(5-(3-(3,3-dimethylbutoxy)-5-fluorophenyl)-4-(2-methyl-6-(trifluoromethyl)phenyl)thiazol-2-yl)pyridine-4-sulfonamide]",A (“A” refers to AUC > 5)
2,"Cc1cccc(C)c1-c1nc(NS(=O)(=O)c2ccccc2)sc1-c1cccc(OCCC(C)(C)C)c1 [Example 16, N-(5-(3-(3,3-Dimethylbutoxy)phenyl)-4-(2,6-dimethylphenyl)thiazol-2-yl)benzenesulfonamide]",A (“A” refers to AUC > 5)
3,"Cc1cccc(C)c1-c1nc(NS(=O)(=O)c2ccccc2)sc1-c1cc(F)cc(OCCC(C)(C)C)c1 [Example 17, N-(5-(3-(3,3-Dimethylbutoxy)-5-fluorophenyl)-4-(2,6-dimethylphenyl)thiazol-2-yl)benzenesulfonamide]",B (“B” refers to AUC 2-5)
4,"CC(C)c1ccccc1-c1nc(NS(=O)(=O)c2cccc(N)c2)sc1-c1cccc(OCCC(C)(C)C)c1 [Example 18, 3-Amino-N-(5-(3-(3,3-dimethylbutoxy)phenyl)-4-(2-isopropylphenyl)thiazol-2-yl)benzenesulfonamide]",A (“A” refers to AUC > 5)
5,"CC(C)(C)CCOc1cccc(-c2sc(NS(=O)(=O)c3cccc(NC(=O)C4CC4)c3)nc2-c2ccccc2C(F)(F)F)c1 [Example 19, N-(3-(N-(5-(3-(3,3-Dimethylbutoxy)phenyl)-4-(2-(trifluoromethyl)phenyl)thiazol-2-yl)sulfamoyl)phenyl)cyclopropanecarboxamide]",A (“A” refers to AUC > 5)
6,"CC(C)(C)CCOc1cccc(-c2sc(NS(=O)(=O)c3cccc(NC(=O)C4(F)CC4)c3)nc2-c2ccccc2C(F)(F)F)c1 [Example 20, N-(3-(N-(5-(3-(3,3-Dimethylbutoxy)phenyl)-4-(2-(trifluoromethyl)phenyl)thiazol-2-yl)sulfamoyl)phenyl)-1-fluorocyclopropane-1-carboxamide]",A (“A” refers to AUC > 5)
7,"CNc1cccc(S(=O)(=O)Nc2nc(-c3ccccc3C(C)C)c(-c3cccc(OCCC(C)(C)C)c3)s2)c1 [Example 21, N-(5-(3-(3,3-Dimethylbutoxy)phenyl)-4-(2-isopropylphenyl)thiazol-2-yl)-3-(methylamino)benzenesulfonamide]",A (“A” refers to AUC > 5)
8,"Cc1cccc(C)c1-c1nc(NS(=O)(=O)c2cccc(C(F)F)c2)sc1-c1cccc(OCCC(C)(C)C)c1 [Example 22, 3-(Difluoromethyl)-N-(5-(3-(3,3-dimethylbutoxy)phenyl)-4-(2,6-dimethylphenyl)thiazol-2-yl)benzenesulfonamide]",A (“A” refers to AUC > 5)
9,"CC(C)c1ccccc1-c1nc(NS(=O)(=O)c2cccc(N)c2F)sc1-c1cccc(OCC(F)(F)C(C)(C)C)c1 [Example 23, 3-Amino-N-(5-(3-(2,2-difluoro-3,3-dimethylbutoxy)phenyl)-4-(2-isopropylphenyl)thiazol-2-yl)-2-fluorobenzenesulfonamide]",A (“A” refers to AUC > 5)
10,"CC(C)c1ccccc1-c1nc(NS(=O)(=O)c2cccc(NC3CC(C)(O)C3)c2)sc1-c1ccc(F)c(OCC(F)(F)C(C)(C)C)c1 (centres unmarked) [Example 24, N-(5-(3-(2,2-Difluoro-3,3-dimethylbutoxy)-4-fluorophenyl)-4-(2-isopropylphenyl)thiazol-2-yl)-3-((3-hydroxy-3-methylcyclobutyl)amino)benzenesulfonamide]",A (“A” refers to AUC > 5)
11,"Cc1cccc(C)c1-c1nc(NS(=O)(=O)c2cccc(N)c2F)sc1-c1cc(F)cc(OCCC(C)(C)C)c1 [Example 25, 3-Amino-N-(5-(3-(3,3-dimethylbutoxy)-5-fluorophenyl)-4-(2,6-dimethylphenyl)thiazol-2-yl)-2-fluorobenzenesulfonamide]",A (“A” refers to AUC > 5)
12,"CC(C)c1ccccc1-c1nc(NS(=O)(=O)c2cc(N)ccc2F)sc1-c1ccc(F)c(OCC(F)(F)C(C)(C)C)c1 [Example 26, 5-Amino-N-(5-(3-(2,2-difluoro-3,3-dimethylbutoxy)-4-fluorophenyl)-4-(2-isopropylphenyl)thiazol-2-yl)-2-fluorobenzenesulfonamide]",A (“A” refers to AUC > 5)
13,"CNc1cccc(S(=O)(=O)Nc2nc(-c3c(C)cccc3C)c(-c3cccc(OCCC(C)(C)C)c3)s2)c1 [Example 27, N-(5-(3-(3,3-Dimethylbutoxy)phenyl)-4-(2,6-dimethylphenyl)thiazol-2-yl)-3-(methylamino)benzenesulfonamide]",A (“A” refers to AUC > 5)
14,"Cc1cccc(C)c1-c1nc(NS(=O)(=O)c2cccc(-n3cccn3)c2)sc1-c1cccc(OC2CCC(C)(C)C2)c1 (centres unmarked) [Example 28, N-(5-(3-((3,3-Dimethylcyclopentyl)oxy)phenyl)-4-(2,6-dimethylphenyl)thiazol-2-yl)-3-(1H-pyrazol-1-yl)benzenesulfonamide]",A (“A” refers to AUC > 5)
15,"Cc1cccc(C)c1-c1nc(NS(=O)(=O)c2cccc(-c3ccn[nH]3)c2)sc1-c1cccc(OC2CCC(C)(C)C2)c1 (centres unmarked) [Example 29, N-(5-(3-((3,3-Dimethylcyclopentyl)oxy)phenyl)-4-(2,6-dimethylphenyl)thiazol-2-yl)-3-(1H-pyrazol-5-yl)benzenesulfonamide]",A (“A” refers to AUC > 5)
16,"CC(C)c1ccccc1-c1nc(NS(=O)(=O)c2cccc(N)n2)sc1-c1cccc(OCCC(C)(C)C)c1 [Example 30, 6-Amino-N-(5-(3-(3,3-Dimethylbutoxy)phenyl)-4-(2-isopropylphenyl)thiazol-2-yl)pyridine-2-sulfonamide]",A (“A” refers to AUC > 5)
17,"Cc1cccc(C)c1-c1nc(NS(=O)(=O)c2cccc(N)n2)sc1-c1cc(F)cc(OCCC(C)(C)C)c1 [Example 31, 6-Amino-N-(5-(3-(3,3-dimethylbutoxy)-5-fluorophenyl)-4-(2,6-dimethylphenyl)thiazol-2-yl)pyridine-2-sulfonamide]",A (“A” refers to AUC > 5)
18,"Cc1cccc(C)c1-c1nc(NS(=O)(=O)c2ccnc(N)c2)sc1-c1cc(F)cc(OCCC(C)(C)C)c1 [Example 32, 2-Amino-N-(5-(3-(3,3-dimethylbutoxy)-5-fluorophenyl)-4-(2,6-dimethylphenyl)thiazol-2-yl)pyridine-4-sulfonamide]",A (“A” refers to AUC > 5)
19,"CC(C)c1ccccc1-c1nc(NS(=O)(=O)c2ccnc(N)c2)sc1-c1cc(F)cc(OCCC(C)(C)C)c1 [Example 33, 2-Amino-N-(5-(3-(3,3-dimethylbutoxy)-5-fluorophenyl)-4-(2-isopropylphenyl)thiazol-2-yl)pyridine-4-sulfonamide]",A (“A” refers to AUC > 5)
20,"Cc1cccc(OC(C)C)c1-c1nc(NS(=O)(=O)c2ccnc(N)c2)sc1-c1cc(F)cc(OCCC(C)(C)C)c1 [Example 34, 2-Amino-N-(5-(3-(3,3-dimethylbutoxy)-5-fluorophenyl)-4-(2-isopropoxy-6-methylphenyl)thiazol-2-yl)pyridine-4-sulfonamide]",A (“A” refers to AUC > 5)
